Measured values from patent publication US5391540A, “Substituted pyridine compounds” (Rohm and Haas Company, priority 1993, dated 1995).

Key:
Format in all cases: in vivo
Downy Brome = assay: Pre-emergent herbicidal activity (Table A); settings: Bromus tectorum, pre-emergence, Dobr, 11.2 kg/ha, 10-14 days, read-out: herbicidal rating (% inhibition)
How it was run: (§1)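 Percent inhibition per species, scored on a rating scale, after pre-emergent soil incorporation: test compound in acetone or water carrier mixed into cover soil, layered over seeded topsoil or vegetative propagules.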

Cocklebur = assay: Pre-emergent herbicidal activity (Table A); settings: Xanthium strumarium, pre-emergence, Cobu, 11.2 kg/ha, 10-14 days, read-out: herbicidal rating (% inhibition)
How it was run: as §1

Velvetleaf = assay: Pre-emergent herbicidal activity (Table A); settings: Abutilon theophrasti, pre-emergence, Vele, 11.2 kg/ha, 10-14 days, read-out: herbicidal rating (% inhibition)
How it was run: as §1

Morningglory = assay: Pre-emergent herbicidal activity (Table A); settings: Ipomoea, pre-emergence, Mogl, 11.2 kg/ha, 10-14 days, read-out: herbicidal rating (% inhibition)
How it was run: as §1

Yellow Nutsedge = assay: Pre-emergent herbicidal activity (Table A); settings: Cyperus, pre-emergence, Yens, 11.2 kg/ha, 10-14 days, read-out: herbicidal rating (% inhibition)
How it was run: as §1

Barnyardgrass = assay: Pre-emergent herbicidal activity (Table A); settings: Echinochloa crus-galli, pre-emergence, Bygr, 11.2 kg/ha, 10-14 days, read-out: herbicidal rating (% inhibition)
How it was run: as §1

Cobu = assay: plant injury after spraying emerged plants (Table D); parameters: scale not given here
Excerpt: (§2) Topsoil (silt loam) is sieved through a screen having 1.27 cm openings. […] This mixture is steam sterilized and then placed in aluminum pans 6.985 cm deep having ten holes in the bottom each 0.635 cm in diameter. The soil mixture is compacted to a depth of 1.27 cm. from the top of the pan. A predetermined number of seeds of each of several dicotyledonous and monocotyledonous annual plant species and/or vegetative propagules for the perennial plant species are placed on the soil and pressed into the soil surface. The seeds and/or vegetative propagules are covered with 1.27 cm of a mixture of 50% topsoil and 50% of a mixture of Canadian sphagnum peat moss, vermiculite and a wetting agent. The pans are then placed on a capillary mat on a greenhouse bench and subirrigated as needed.
(§3) In the following Table D the legends used to identify the plant species are the same as those used in the preceding Table B.

Bygr = assay: as above; parameters: scale not given here
Excerpt: as §2, §3

Lacg = assay: as above; parameters: scale not given here
Excerpt: as §2, §3

Sobe = assay: as above; parameters: scale not given here
Excerpt: as §2, §3

Grft = assay: as above; parameters: scale not given here
Excerpt: as §2, §3

Grso = assay: as above; parameters: scale not given here
Excerpt: as §2, §3

Rice = assay: as above; parameters: scale not given here
Excerpt: as §2, §3

Corn = assay: as above; parameters: scale not given here
Excerpt: as §2, §3

Whez = assay: as above; parameters: scale not given here
Excerpt: as §2, §3

Dobr = assay: as above
Excerpt: Topsoil (silt loam) is sieved through a screen having 1.27 cm openings. In some of the tests the soil was mixed with fertilizer (1225 g/cu. m of 12/5/9 containing isobutylidene diurea), while in other tests the fertilizer was omitted. This mixture is steam sterilized and then placed in aluminum pans 6.985 cm deep having ten holes in the bottom each 0.635 cm in diameter. The soil mixture is compacted to a depth of 1.27 cm. from the top of the pan. A predetermined number of seeds of each of several dicotyledonous and monocotyledonous annual plant species and/or vegetative propagules for the perennial plant species are placed on the soil and pressed into the soil surface. The seeds and/or vegetative propagules are covered with 1.27 cm of a mixture of 50% topsoil and 50% of a mixture of Canadian sphagnum peat moss, vermiculite and a wetting agent. The pans are then placed on a capillary mat on a greenhouse bench and subirrigated as needed. After the plants reach the desired stage (9 to 14 days, 1 to 3 true leaf stage), each pan (except the control pans) is removed to a spraying chamber and sprayed by means of an atomizer, operating at a spray pressure of 170.3 kPa ([…]) at the application rates noted in Table D. In the spray solution is an amount of an emulsifying agent mixture (35% butylamine salt of dodecylbenzenesulfonic acid and 65% tall oil condensed with ethylene oxide in the ratio of 11 mols of ethylene oxide/mol of tall oil) to give a spray solution or suspension. The spray solution or suspension contains a sufficient amount of the candidate chemical in order to give application rates of the active ingredient corresponding to those shown in Table D below while applying a total amount of solution or suspension equivalent to 1870 L/Ha (200 gallons/acre). The pans are returned to the greenhouse and watered as before and the injury to the plants as compared to the control pans is observed at approximately 10-14 days (usually 11 days).
as §3

## COC(=O)c1c(OC)nc(C(F)(F)F)c(N=CSC)c1CC(C)C [Compound 77, 3-pyridinecarboxylic acid, 2-methoxy-4-(2-methylpropyl)-5-[[(methylthio)methylene]amino]-6-(trifluoromethyl)-, methyl ester]
Downy Brome
  inhibition at 11200 g/ha: 75 to 100%
Cocklebur
  inhibition at 11200 g/ha: 50 to 74%
Velvetleaf
  inhibition at 11200 g/ha: 75 to 100%
Morningglory
  inhibition at 11200 g/ha: 75 to 100%
Yellow Nutsedge
  inhibition at 11200 g/ha: 75 to 100%
Barnyardgrass
  inhibition at 11200 g/ha: 75 to 100%
Cobu; 2.8025 kg/ha
  plant injury rating, Cobu: 1
Cobu; 11.2100 kg/ha
  plant injury rating, Cobu: 3
Bygr; 1.1210 kg/ha
  plant injury rating, Bygr: 0
Bygr; 5.6050 kg/ha
  plant injury rating, Bygr: 2
Bygr; 11.2100 kg/ha
  plant injury rating, Bygr: 3
Lacg; 1.1210 kg/ha
  plant injury rating, Lacg: 2
Lacg; 2.8025 kg/ha
  plant injury rating, Lacg: 3
Lacg; 5.6050 kg/ha
  plant injury rating, Lacg: 3
Lacg; 11.2100 kg/ha
  plant injury rating, Lacg: 3
Sobe; 1.1210 kg/ha
  plant injury rating, Sobe: 1
Sobe; 2.8025 kg/ha
  plant injury rating, Sobe: 1
Grft; 1.1210 kg/ha
  plant injury rating, Grft: 0
Grft; 2.8025 kg/ha
  plant injury rating, Grft: 1
Grso; 2.8025 kg/ha
  plant injury rating, Grso: 1
Grso; 11.2100 kg/ha
  plant injury rating, Grso: 1
Rice; 1.1210 kg/ha
  plant injury rating, Rice: 0
Rice; 2.8025 kg/ha
  plant injury rating, Rice: 0
Rice; 5.6050 kg/ha
  plant injury rating, Rice: 0
Rice; 11.2100 kg/ha
  plant injury rating, Rice: 0
Corn; 2.8025 kg/ha
  plant injury rating, Corn: 2
Corn; 5.6050 kg/ha
  plant injury rating, Corn: 2
Corn; 11.2100 kg/ha
  plant injury rating, Corn: 3
Whez; 1.1210 kg/ha
  plant injury rating, Whez: 0
Whez; 2.8025 kg/ha
  plant injury rating, Whez: 0
Whez; 5.6050 kg/ha
  plant injury rating, Whez: 0
Dobr; 1.1210 kg/ha
  plant injury rating, Dobr: 0
Dobr; 2.8025 kg/ha
  plant injury rating, Dobr: 0
Dobr; 11.2100 kg/ha
  plant injury rating, Dobr: 0

## COC(=O)c1c(OC)nc(C(F)(F)F)c(C2SCCS2)c1CC(C)C [Compound 93, 3-pyridinecarboxylic acid, 5-(1,3-dithiolan-2-yl)-2-methoxy-4-(2-methylpropyl)-6-(trifluoromethyl)-, methyl ester]
Downy Brome
  inhibition at 11200 g/ha: 75 to 100%
Cocklebur
  inhibition at 11200 g/ha: 0 to 24%
Velvetleaf
  inhibition at 11200 g/ha: 75 to 100%
Morningglory
  inhibition at 11200 g/ha: 75 to 100%
Yellow Nutsedge
  inhibition at 11200 g/ha: 0 to 24%
Barnyardgrass
  inhibition at 11200 g/ha: 75 to 100%
Cobu; 0.0701 kg/ha
  plant injury rating, Cobu: 0
Cobu; 0.2803 kg/ha
  plant injury rating, Cobu: 0
Cobu; 1.1210 kg/ha
  plant injury rating, Cobu: 2
Cobu; 5.6050 kg/ha
  plant injury rating, Cobu: 3
Bygr; 0.0701 kg/ha
  plant injury rating, Bygr: 0
Bygr; 0.2803 kg/ha
  plant injury rating, Bygr: 0
Bygr; 1.1210 kg/ha
  plant injury rating, Bygr: 0
Bygr; 5.6050 kg/ha
  plant injury rating, Bygr: 2
Lacg; 0.2803 kg/ha
  plant injury rating, Lacg: 2
Lacg; 1.1210 kg/ha
  plant injury rating, Lacg: 3
Lacg; 5.6050 kg/ha
  plant injury rating, Lacg: 3
Sobe; 0.0701 kg/ha
  plant injury rating, Sobe: 0
Sobe; 0.2803 kg/ha
  plant injury rating, Sobe: 1
Sobe; 1.1210 kg/ha
  plant injury rating, Sobe: 2
Sobe; 5.6050 kg/ha
  plant injury rating, Sobe: 3
Grft; 0.0701 kg/ha
  plant injury rating, Grft: 0
Grft; 0.2803 kg/ha
  plant injury rating, Grft: 0
Grft; 1.1210 kg/ha
  plant injury rating, Grft: 0
Grft; 5.6050 kg/ha
  plant injury rating, Grft: 1
Grso; 0.0701 kg/ha
  plant injury rating, Grso: 0
Grso; 0.2803 kg/ha
  plant injury rating, Grso: 0
Grso; 1.1210 kg/ha
  plant injury rating, Grso: 0
Grso; 5.6050 kg/ha
  plant injury rating, Grso: 2
Rice; 0.0701 kg/ha
  plant injury rating, Rice: 0
Rice; 0.2803 kg/ha
  plant injury rating, Rice: 0
Rice; 1.1210 kg/ha
  plant injury rating, Rice: 0
Rice; 5.6050 kg/ha
  plant injury rating, Rice: 0
Corn; 0.0701 kg/ha
  plant injury rating, Corn: 0
Corn; 0.2803 kg/ha
  plant injury rating, Corn: 3
Corn; 1.1210 kg/ha
  plant injury rating, Corn: 3
Corn; 5.6050 kg/ha
  plant injury rating, Corn: 3
Whez; 0.0701 kg/ha
  plant injury rating, Whez: 0
Whez; 0.2803 kg/ha
  plant injury rating, Whez: 0
Whez; 1.1210 kg/ha
  plant injury rating, Whez: 0
Whez; 5.6050 kg/ha
  plant injury rating, Whez: 0
Dobr; 0.0701 kg/ha
  plant injury rating, Dobr: 0
Dobr; 0.2803 kg/ha
  plant injury rating, Dobr: 0
Dobr; 1.1210 kg/ha
  plant injury rating, Dobr: 0
Dobr; 5.6050 kg/ha
  plant injury rating, Dobr: 0
